According to ChEMBL document CHEMBL3885881, “DrugMatrix”:
Values joined by “and” are separate entries in the source; they are usually repeats but may differ in a detail not shown here. Identical values can stand only once.

Species on record: Rattus norvegicus
Assay: DrugMatrix - Regimen: Daily Repeat
Format: toxicity, organism-based, Sprague-Dawley
Design: regimen Daily Repeat, gender Male, age 6-8 weeks
Conditions: in vivo, po, 0 mg/kg, route oral GAVAGE, dose level Control, vehicle .5 % CMC; for BASOPHIL / EOSINOPHIL / ERYTHROCYTE COUNT / HEMATOCRIT / HEMOGLOBIN / LEUKOCYTE COUNT / LYMPHOCYTE / MEAN CORPUSCULAR HEMOGLOBIN / MEAN CORPUSCULAR HEMOGLOBIN CONCENTRATION / MEAN CORPUSCULAR VOLUME / MONOCYTE / NEUTROPHIL / PLATELET COUNT / ABSOLUTE BASOPHIL / ABSOLUTE EOSINOPHIL / ABSOLUTE LYMPHOCYTE / ABSOLUTE MONOCYTE / ABSOLUTE SEGMENTED NEUTROPHIL: tissue Blood; for ALANINE AMINOTRANSFERASE / ALBUMIN / ALKALINE PHOSPHATASE / ASPARTATE AMINOTRANSFERASE / BLOOD UREA NITROGEN / CHLORIDE / CHOLESTEROL / CREATINE PHOSPHOKINASE / CREATININE / GLUCOSE / PHOSPHORUS / POTASSIUM / SODIUM / TOTAL BILIRUBIN / TOTAL PROTEIN / LACTATE DEHYDROGENASE / LIPASE / URIC ACID: tissue Plasma

Cc1ccc2cc3c(ccc4ccccc43)c3c2c1CC3 [3-METHYLCHOLANTHRENE]
BASOPHIL (72 h, time 3 day): 0.52%
EOSINOPHIL (72 h, time 3 day): 0.48%
ERYTHROCYTE COUNT (72 h, time 3 day): 6.68 x10E6/uL
HEMATOCRIT (72 h, time 3 day): 43.07%
HEMOGLOBIN (72 h, time 3 day): 13.48 G/DL
LEUKOCYTE COUNT (72 h, time 3 day): 11.41 x10E3/uL
LYMPHOCYTE (72 h, time 3 day): 80.78%
MEAN CORPUSCULAR HEMOGLOBIN (72 h, time 3 day): 20.2 pg
MEAN CORPUSCULAR HEMOGLOBIN CONCENTRATION (72 h, time 3 day): 31.32 G/DL
MEAN CORPUSCULAR VOLUME (72 h, time 3 day): 64.45 fL
MONOCYTE (72 h, time 3 day): 2.23%
NEUTROPHIL (72 h, time 3 day): 14.73%
PLATELET COUNT (72 h, time 3 day): 1225.83 x10E3/uL
ALANINE AMINOTRANSFERASE (72 h, time 3 day): 44.5 u/L
ALBUMIN (72 h, time 3 day): 3.62 G/DL
ALKALINE PHOSPHATASE (72 h, time 3 day): 404.5 u/L
ASPARTATE AMINOTRANSFERASE (72 h, time 3 day): 71.67 u/L
BLOOD UREA NITROGEN (72 h, time 3 day): 15 mg/dL
CHLORIDE (72 h, time 3 day): 103 MEQ/L
CHOLESTEROL (72 h, time 3 day): 96.83 mg/dL
CREATINE PHOSPHOKINASE (72 h, time 3 day): 236 u/L
CREATININE (72 h, time 3 day): 0.43 mg/dL
GLUCOSE (72 h, time 3 day): 186.83 mg/dL
PHOSPHORUS (72 h, time 3 day): 12.67 mg/dL
POTASSIUM (72 h, time 3 day): 7.1 MEQ/L
SODIUM (72 h, time 3 day): 147.33 MEQ/L
TOTAL BILIRUBIN (72 h, time 3 day): 0.52 mg/dL
TOTAL PROTEIN (72 h, time 3 day): 6.18 G/DL
ABSOLUTE BASOPHIL (120 h, time 5 day): 92 cells/µL
ABSOLUTE EOSINOPHIL (120 h, time 5 day): 52 cells/µL
ABSOLUTE LYMPHOCYTE (120 h, time 5 day): 6560 cells/µL
ABSOLUTE MONOCYTE (120 h, time 5 day): 160 cells/µL
ABSOLUTE SEGMENTED NEUTROPHIL (120 h, time 5 day): 1130 cells/µL
BASOPHIL (120 h, time 5 day): 1.14% and 0.92%
EOSINOPHIL (120 h, time 5 day): 0.68% and 0.43%
ERYTHROCYTE COUNT (120 h, time 5 day): 7.51 x10E6/uL and 7.03 x10E6/uL
HEMATOCRIT (120 h, time 5 day): 46.04% and 46.55%
HEMOGLOBIN (120 h, time 5 day): 15.62 G/DL and 14.32 G/DL
LEUKOCYTE COUNT (120 h, time 5 day): 8.03 x10E3/uL and 12.22 x10E3/uL
LYMPHOCYTE (120 h, time 5 day): 81.54% and 82.65%
MEAN CORPUSCULAR HEMOGLOBIN (120 h, time 5 day): 20.84 pg and 20.35 pg
MEAN CORPUSCULAR HEMOGLOBIN CONCENTRATION (120 h, time 5 day): 33.94 G/DL and 30.77 G/DL
MEAN CORPUSCULAR VOLUME (120 h, time 5 day): 61.42 fL and 66.28 fL
MONOCYTE (120 h, time 5 day): 2% and 2.28%
NEUTROPHIL (120 h, time 5 day): 14.24% and 12.73%
PLATELET COUNT (120 h, time 5 day): 1427.2 x10E3/uL and 1268.67 x10E3/uL
ALANINE AMINOTRANSFERASE (120 h, time 5 day): 35.6 u/L and 44.5 u/L
ALBUMIN (120 h, time 5 day): 3.64 G/DL and 3.73 G/DL
ALKALINE PHOSPHATASE (120 h, time 5 day): 233 u/L and 340.83 u/L
ASPARTATE AMINOTRANSFERASE (120 h, time 5 day): 81 u/L and 66.5 u/L
BLOOD UREA NITROGEN (120 h, time 5 day): 12 mg/dL and 13.33 mg/dL
CHLORIDE (120 h, time 5 day): 109.4 MEQ/L and 102.17 MEQ/L
CHOLESTEROL (120 h, time 5 day): 47.6 mg/dL and 82.17 mg/dL
CREATINE PHOSPHOKINASE (120 h, time 5 day): 183.2 u/L and 146.67 u/L
CREATININE (120 h, time 5 day): 0.4 mg/dL and 0.35 mg/dL
GLUCOSE (120 h, time 5 day): 134.6 mg/dL and 186.17 mg/dL
LACTATE DEHYDROGENASE (120 h, time 5 day): 89.4 u/L
LIPASE (120 h, time 5 day): 17.2 u/L
PHOSPHORUS (120 h, time 5 day): 13.02 mg/dL and 11.83 mg/dL
POTASSIUM (120 h, time 5 day): 7 MEQ/L and 6.47 MEQ/L
SODIUM (120 h, time 5 day): 149.6 MEQ/L and 148.83 MEQ/L
TOTAL PROTEIN (120 h, time 5 day): 6.06 G/DL and 6.27 G/DL
URIC ACID (120 h, time 5 day): 1.04 mg/dL
ABSOLUTE BASOPHIL (2184 h, time 91 day): 130 cells/µL
ABSOLUTE EOSINOPHIL (2184 h, time 91 day): 70 cells/µL
ABSOLUTE LYMPHOCYTE (2184 h, time 91 day): 8670 cells/µL
ABSOLUTE MONOCYTE (2184 h, time 91 day): 160 cells/µL
ABSOLUTE SEGMENTED NEUTROPHIL (2184 h, time 91 day): 1530 cells/µL
BASOPHIL (2184 h, time 91 day): 1.13%
EOSINOPHIL (2184 h, time 91 day): 0.66%
ERYTHROCYTE COUNT (2184 h, time 91 day): 9.13 x10E6/uL
HEMATOCRIT (2184 h, time 91 day): 48.47%
HEMOGLOBIN (2184 h, time 91 day): 16.56 G/DL
LEUKOCYTE COUNT (2184 h, time 91 day): 10.5 x10E3/uL
LYMPHOCYTE (2184 h, time 91 day): 81.63%
MEAN CORPUSCULAR HEMOGLOBIN (2184 h, time 91 day): 18.16 pg
MEAN CORPUSCULAR HEMOGLOBIN CONCENTRATION (2184 h, time 91 day): 34.14 G/DL
MEAN CORPUSCULAR VOLUME (2184 h, time 91 day): 53.14 fL
MONOCYTE (2184 h, time 91 day): 1.53%
NEUTROPHIL (2184 h, time 91 day): 14.71%
PLATELET COUNT (2184 h, time 91 day): 1280.22 x10E3/uL
ALANINE AMINOTRANSFERASE (2184 h, time 91 day): 28.89 u/L
ALBUMIN (2184 h, time 91 day): 3.69 G/DL
ALKALINE PHOSPHATASE (2184 h, time 91 day): 101.11 u/L
ASPARTATE AMINOTRANSFERASE (2184 h, time 91 day): 70.67 u/L
BLOOD UREA NITROGEN (2184 h, time 91 day): 16.78 mg/dL
CHLORIDE (2184 h, time 91 day): 104.56 MEQ/L
CHOLESTEROL (2184 h, time 91 day): 58.78 mg/dL
CREATINE PHOSPHOKINASE (2184 h, time 91 day): 91.22 u/L
CREATININE (2184 h, time 91 day): 0.61 mg/dL
GLUCOSE (2184 h, time 91 day): 142.33 mg/dL
LACTATE DEHYDROGENASE (2184 h, time 91 day): 81.67 u/L
LIPASE (2184 h, time 91 day): 13 u/L
PHOSPHORUS (2184 h, time 91 day): 7.54 mg/dL
POTASSIUM (2184 h, time 91 day): 6.27 MEQ/L
SODIUM (2184 h, time 91 day): 149.89 MEQ/L
TOTAL BILIRUBIN (2184 h, time 91 day): 0.19 mg/dL
TOTAL PROTEIN (2184 h, time 91 day): 7.12 G/DL
URIC ACID (2184 h, time 91 day): 0.97 mg/dL
ABSOLUTE BASOPHIL ([…], time 28 day): 150 cells/µL
ABSOLUTE EOSINOPHIL ([…], time 28 day): 54 cells/µL
ABSOLUTE LYMPHOCYTE ([…], time 28 day): 8890 cells/µL
ABSOLUTE MONOCYTE ([…], time 28 day): 190 cells/µL
ABSOLUTE SEGMENTED NEUTROPHIL ([…], time 28 day): 2250 cells/µL
BASOPHIL ([…], time 28 day): 1.26%
EOSINOPHIL ([…], time 28 day): 0.46%
ERYTHROCYTE COUNT ([…], time 28 day): 8.34 x10E6/uL
HEMATOCRIT ([…], time 28 day): 48.66%
HEMOGLOBIN ([…], time 28 day): 16.04 G/DL
LEUKOCYTE COUNT ([…], time 28 day): 11.58 x10E3/uL
LYMPHOCYTE ([…], time 28 day): 76.74%
MEAN CORPUSCULAR HEMOGLOBIN ([…], time 28 day): 19.2 pg
MEAN CORPUSCULAR HEMOGLOBIN CONCENTRATION ([…], time 28 day): 32.92 G/DL
MEAN CORPUSCULAR VOLUME ([…], time 28 day): 58.32 fL
MONOCYTE ([…], time 28 day): 1.76%
NEUTROPHIL ([…], time 28 day): 19.44%
PLATELET COUNT ([…], time 28 day): 1282.6 x10E3/uL
ALANINE AMINOTRANSFERASE ([…], time 28 day): 27 u/L
ALBUMIN ([…], time 28 day): 3.68 G/DL
ALKALINE PHOSPHATASE ([…], time 28 day): 146.2 u/L
ASPARTATE AMINOTRANSFERASE ([…], time 28 day): 66.6 u/L
BLOOD UREA NITROGEN ([…], time 28 day): 12.4 mg/dL
CHLORIDE ([…], time 28 day): 104.6 MEQ/L
